Measured values as given in patent US20160206606A1, “TOPICAL COMPOSITIONS COMPRISING A THIAZOLIDINEDIONE” (Topokine Therapeutics, Inc., priority 2014, published 2016).
Structures can show the parent of a compound that is named as a salt. Where two headings read alike, the source gives them in different places.

Key:
[1] = Solubility by serial addition of solvent to a known mass of the TZD until full dissolution; format: physicochemical
Experimental: The solubility of rosiglitazone maleate and pioglitazone hydrochloride in various solvents was tested by a standard method, i.e., serial addition of solvent to a known mass of the TZD compound, until full dissolution was observed. Additional solubility results were obtained from the literature. […] This phenomenon occurred in formulations comprising water, as well as formulations lacking water. […] Next, the solubility of troglitazone in various solvents was tested by a standard method, i.e., serial addition of solvent to a known mass of troglitazone, until full dissolution was observed. Additional solubility results were obtained from the literature.

[2] = cited from earlier work; for solubility in ethanol: background statement, temperature not stated
[3] = solvent: 70% ethanol, 27% PG, 3% oleic acid
[4] = solvent: 70% ethanol, 30% propylene glycol (PG)

Row | Solubility at 25° C. ([1]; solvent: 65% ethanol, 25% PG, 7% water, 3% oleic acid) [mg/g] | Solubility at 25° C. [1, 3] [mg/g] | increase of solubility in the vehicle on addition of oleic acid ([1]; about 3% w/w oleic acid added to ethanol-based vehicle) | increase of solubility in the vehicle on addition of oleic acid ([1]; about 3% w/w oleic acid added to isopropanol-based vehicle) | Solubility at 25° C. ([1]; solvent: 63% ethanol, 24% PG, 10% water, 3% oleic acid) [mg/g] | Solubility at 25° C. [1, 4] [mg/g] | Solubility at 25° C. ([1]; solvent: 70% isopropyl alcohol, 27% PG, 3% oleic acid) [mg/g] | Solubility at 25° C. ([1]; solvent: 70% isopropyl alcohol, 30% PG) [mg/g] | SMILES | solubility in ethanol [2] | Solubility at 25° C. ([2]; solvent: Ethanol) | Solubility at 25° C. ([2]; solvent: Water)
1 | ~9 | ~9 | – | – | – | – | – | – | CCc1ccc(CCOc2ccc(CC3SC(=O)NC3=O)cc2)nc1 (stereo not drawn) [pioglitazone hydrochloride] | ~4000 µg/mL | 4 mg/mL | 0.05 mg/mL
2 | – | ~10 | over 75 fold | about 3 fold | ~10 | 0.13 | 1.2 | 0.4 | CN(CCOc1ccc(CC2SC(=O)NC2=O)cc1)c1ccccn1 (stereo not drawn) [rosiglitazone maleate] | about 0.25 mg/mL | 0.25 mg/mL | –
3 | – | 0.6 | – | – | – | 0.3 | – | – | Cc1c(C)c2c(c(C)c1O)CCC(C)(COc1ccc(CC3SC(=O)NC3=O)cc1)O2 (stereo not drawn) [troglitazone] | – | 0.3 mg/mL^b | 0.02 mg/mL^a
